Blank lines part the entries; values can stand above or below the molecule they belong to. The source made the active and inactive calls. No cut-off for these calls is given here.
Tests used:
MEF [1] = experiment: Cytotoxicity against C57BL/6 MEF at 100 nM by WST-8 assay; format: cell-based; conditions: mouse, 0.1 µM
MEF [2] = experiment: Induction of Oct3/4 gene expression in C57BL/6 MEF at 100 nM after 24 hrs by quantitative RT-PCR analysis relative to control; format: functional, Mus musculus; conditions: for Activity: Mus musculus
MEF [3] = experiment: Upregulation of Nanog gene expression in C57BL/6 MEF at 100 nM after 24 hrs by quantitative RT-PCR analysis relative to control; format: functional, Mus musculus; conditions: for Activity: Mus musculus
MEF [4] = experiment: Upregulation of Sox2 gene expression in C57BL/6 MEF at 100 nM after 24 hrs by quantitative RT-PCR analysis relative to control; format: functional, cell-based; conditions: Mus musculus
MEF [5] = experiment: Upregulation of Klf4 gene expression in C57BL/6 MEF at 100 nM after 24 hrs by quantitative RT-PCR analysis relative to control; format: functional; conditions: for Activity: Mus musculus
MEF [6] = experiment: Upregulation of c-Myc gene expression in C57BL/6 MEF at 100 nM after 24 hrs by quantitative RT-PCR analysis relative to control; format: functional; conditions: for Activity: Mus musculus
[7] = Inhibition of HDAC

HDAC inhibition activity [7]: Active
SMILES: CN(C)CCCNC(=O)c1cc(NC(=O)c2cc(NC(=O)c3cc(NC(=O)c4cc(NC(=O)CCCNC(=O)c5cc(NC(=O)c6cc(NC(=O)c7cc(NC(=O)c8nc(NC(=O)CCNC(=O)CCNC(=O)c9ccc(NC(=O)CCCCCCC(=O)NO)cc9)cn8C)cn7C)cn6C)cn5C)cn4C)cn3C)cn2C)cn1C
Activity (MEF [1]): Non-toxic
fold change (FC) (MEF [2]): 3.1
fold change (FC) (MEF [3]): 2
Activity (MEF [4]): Active
Activity (MEF [5]): inactive
Activity (MEF [6]): inactive

SMILES: CONC(=O)CCCCCCC(=O)Nc1ccc(C(=O)NCCC(=O)NCCC(=O)Nc2cn(C)c(C(=O)Nc3cc(C(=O)Nc4cc(C(=O)Nc5cc(C(=O)NCCCC(=O)Nc6cc(C(=O)Nc7cc(C(=O)Nc8cc(C(=O)Nc9cc(C(=O)NCCCN(C)C)n(C)c9)n(C)c8)n(C)c7)n(C)c6)n(C)c5)n(C)c4)n(C)c3)n2)cc1
Activity (MEF [2]): inactive
Activity (MEF [3]): inactive
Activity (MEF [4]): Active

HDAC inhibition activity [7]: Active
SMILES: CC(=O)Nc1cn(C)c(C(=O)Nc2cc(C(=O)Nc3cc(C(=O)Nc4cc(C(=O)NCCCC(=O)Nc5cc(C(=O)Nc6cc(C(=O)Nc7cc(C(=O)Nc8cc(C(=O)NCCCN(C)CCCNC(=O)c9ccc(NC(=O)CCCCCCC(=O)NO)cc9)n(C)c8)n(C)c7)n(C)c6)n(C)c5)n(C)c4)n(C)c3)n(C)c2)n1
Activity (MEF [1]): Non-toxic
fold change (FC) (MEF [2]): 2
fold change (FC) (MEF [3]): 2
Activity (MEF [4]): Active
fold change (FC) (MEF [5]): 2.2
fold change (FC) (MEF [6]): 1.5

HDAC inhibition activity [7]: Active
SMILES: CN(C)CCCNC(=O)c1cc(NC(=O)c2cc(NC(=O)c3cc(NC(=O)c4cc(NC(=O)CCCNC(=O)c5cc(NC(=O)c6cc(NC(=O)c7cc(NC(=O)c8nc(NC(=O)CCNC(=O)CCNC(=O)CCNC(=O)c9ccc(NC(=O)CCCCCCC(=O)NO)cc9)cn8C)cn7C)cn6C)cn5C)cn4C)cn3C)cn2C)cn1C
Activity (MEF [1]): Non-toxic
fold change (FC) (MEF [2]): 4.5
Activity (MEF [3]): Active
Activity (MEF [4]): Active
fold change (FC) (MEF [5]): 1.5
fold change (FC) (MEF [6]): 1.5

HDAC inhibition activity [7]: Active
SMILES: CN(C)CCCNC(=O)c1cc(NC(=O)c2cc(NC(=O)c3cc(NC(=O)c4cc(NC(=O)CCCNC(=O)c5cc(NC(=O)c6cc(NC(=O)c7cc(NC(=O)c8nc(NC(=O)CCNC(=O)c9ccc(NC(=O)CCCCCCC(=O)NO)cc9)cn8C)cn7C)cn6C)cn5C)cn4C)cn3C)cn2C)cn1C
Activity (MEF [1]): Non-toxic
fold change (FC) (MEF [2]): 2
fold change (FC) (MEF [3]): 2
Activity (MEF [4]): Active
fold change (FC) (MEF [5]): 1.5
Activity (MEF [6]): inactive

HDAC inhibition activity [7]: Active
SMILES: CN(C)CCCNC(=O)c1cc(NC(=O)c2cc(NC(=O)c3cc(NC(=O)c4cc(NC(=O)CCCNC(=O)c5cc(NC(=O)c6cc(NC(=O)c7cc(NC(=O)c8nc(NC(=O)CCNC(=O)CCNC(=O)CCNC(=O)CCNC(=O)c9ccc(NC(=O)CCCCCCC(=O)NO)cc9)cn8C)cn7C)cn6C)cn5C)cn4C)cn3C)cn2C)cn1C
Activity (MEF [1]): Non-toxic
fold change (FC) (MEF [2]): 3.6
fold change (FC) (MEF [3]): 2
Activity (MEF [4]): Active
fold change (FC) (MEF [5]): 1.5
fold change (FC) (MEF [6]): 1.5

SMILES: O=C(CCCCCCC(=O)Nc1ccccc1)NO
Activity (MEF [2]): inactive
Activity (MEF [3]): inactive
Activity (MEF [4]): Active

HDAC inhibition activity [7]: Active
SMILES: CN(C)CCCNC(=O)CCNC(=O)c1cc(NC(=O)c2cc(NC(=O)c3cc(NC(=O)c4cc(NC(=O)CCCNC(=O)c5cc(NC(=O)c6cc(NC(=O)c7cc(NC(=O)c8nc(NC(=O)CCNC(=O)CCNC(=O)c9ccc(NC(=O)CCCCCCC(=O)NO)cc9)cn8C)cn7C)cn6C)cn5C)cn4C)cn3C)cn2C)cn1C
Activity (MEF [1]): Non-toxic
fold change (FC) (MEF [2]): 2
fold change (FC) (MEF [3]): 2
Activity (MEF [4]): Active
Activity (MEF [5]): Active
fold change (FC) (MEF [6]): 1.8

From ChEMBL document CHEMBL2157985, “Development of programmable small DNA-binding molecules with epigenetic activity for induction of core pluripotency genes” (Bioorg Med Chem, 2012)
